Values of other authors, collected in patent US9714271B2 (ContraVir Pharmaceuticals, Inc., priority 2010, dated 2017).

Target: CyP-A (Homo sapiens, UniProt P62937)
Sequence (P62937 whole entry): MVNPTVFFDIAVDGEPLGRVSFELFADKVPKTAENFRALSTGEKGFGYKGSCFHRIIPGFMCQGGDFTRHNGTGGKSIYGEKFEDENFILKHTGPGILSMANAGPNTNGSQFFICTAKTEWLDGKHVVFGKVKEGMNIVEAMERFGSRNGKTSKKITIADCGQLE

C/C=C/C[C@@H](C)[C@@H](O)[C@H]1C(=O)N[C@@H](CC)C(=O)N(C)[C@H](SCCN(C)C)C(=O)N(C)[C@@H](CC(C)(C)O)C(=O)N[C@@H](C(C)C)C(=O)N(C)[C@@H](CC(C)C)C(=O)N[C@@H](C)C(=O)N[C@H](C)C(=O)N(C)[C@@H](CC(C)C)C(=O)N(C)[C@@H](CC(C)C)C(=O)N(C)[C@@H](C(C)C)C(=O)N1C [SCY-635, DimethylaminoethylthioSar^3-hydroxyLeu^4-Cyclosporin]
binding affinity for CyP-A: retains binding affinity for CyP-A

C/C=C/C[C@@H](C)[C@@H](O)[C@H]1C(=O)N[C@@H](CC)C(=O)N(C)CC(=O)N(C)[C@@H]([C@@H](C)CC)C(=O)N[C@@H](C(C)C)C(=O)N(C)[C@@H](CC(C)C)C(=O)N[C@@H](C)C(=O)N[C@H](C)C(=O)N(C)[C@@H](CC(C)C)C(=O)N(C)[C@@H](CC(C)C)C(=O)N(C)[C@@H](C(C)C)C(=O)N1C [NIM 811, Melle^4-Cyclosporine]
binding affinity for CyP-A: retains binding affinity for CyP-A

C/C=C/C[C@@H](C)[C@@H](O)[C@H]1C(=O)N[C@@H](CC)C(=O)N(C)[C@H](C)C(=O)N(CC)[C@@H](C(C)C)C(=O)N[C@@H](C(C)C)C(=O)N(C)[C@@H](CC(C)C)C(=O)N[C@@H](C)C(=O)N[C@H](C)C(=O)N(C)[C@@H](CC(C)C)C(=O)N(C)[C@@H](CC(C)C)C(=O)N(C)[C@@H](C(C)C)C(=O)N1C [DEBIO 025, MeAla^3EtVal^4-Cyclosporin]
binding affinity for CyP-A: retains binding affinity for CyP-A
